Assays:
Rat [1] = assay: concentration in kidney after dosing; settings: 3 h; dosed: Fluorotelomer alcohol 8+2; 80 mg/kg; oral; Female; Harlan Sprague Dawley
Rat [2] = assay: concentration in plasma after dosing; settings: dosed: 678-39-7, 12 mg/kg, iv, Male, F344
rat [3] = assay: concentration in kidney after dosing (ugEq/g tissue); settings: dosed: benzo[a]pyrene, iv, male, Wistar
rat [4] = assay: amount in expired air after dosing (umol); settings: dosed: methanol, 100 mg/kg, iv, male, CDF(F344)/CrlBR

O=C(O)C(F)(F)C(F)(F)C(F)(F)C(F)(F)C(F)(F)C(F)(F)C(F)(F)F [Perfluorooctanoic acid]
Settings	concentration in kidney [ng/g]
Rat [1]	2010

Rat [2]
Settings	concentration in plasma [ng/mL]
1 h	342
6 h	463

c1ccc2c(c1)cc1ccc3cccc4ccc2c1c34 [benzo[a]pyrene]
concentration in kidney, rat [3]
Settings	2 mg/kg	6 mg/kg	15 mg/kg
0.5 h	4.64	7.09	20.1
0.75 h	4.02	7.57	16.8
1 h	2.67	6.12	15.1
1.5 h	1.31	2.25	13.6
2 h	0.21	0.8	5.37
3 h	0.23	0.2	1.77
4 h	0.07	0.15	0.8
5 h	0.06	0.09	0.36
5 min	7	12.4	30.8
6 h	0.08	0.11	0.35
8 h	0.08	0.09	0.25
10 min	7.09	15.9	25.2
20 min	7.68	11.7	22.5
24 h	–	–	0.05
32 h	–	–	0.01

CO [methanol]
rat [4]
Settings	amount in expired air
0.5482 h	3.95
1.003 h	4.75
1.458 h	5.56
1.963 h	7.78
2.999 h	10.5
4.439 h	14.9
5.98 h	17.6
8.026 h	18.8
10.01 h	19.4
12.02 h	20.1
15.07 h	19.5
